Reference: ChEMBL document CHEMBL2429858, “Five new degraded diterpenoids from Trigonostemon xyphophylloides” (Bioorg Med Chem Lett, 2013)

Experiments:
SGC-7901 = assay: Cytotoxicity against human SGC7901 cells after 48 hrs by MTT assay; format: functional, cell-based; conditions: SGC-7901, 48 h
[1] = Cytotoxicity against human SPCA1 cells after 48 hrs by MTT assay; format: functional, cell-based; conditions: SPCA1, 48 h

Question: For `CO[C@@]12[C@H](COC(N)=O)C3=C(C(=O)C(C)=C(N)C3=O)N1C[C@@H]1N[C@@H]12` [MITOMYCIN], which IC50 (SGC-7901) is on record?
Answer: Its IC50 is 2.05 µM.

Question: And the IC50 [1]?
Answer: Its IC50 is 1.68 µM.

Question: With `COc1c(O)c(C)cc2c1C1=CC(=O)C(C)(C)C1=CC2=O` [TRIGOXYPHIN N] as the compound, how does the IC50 (SGC-7901) read?
Answer: The IC50 was 5 µM.

Question: What about the IC50 [1] of the same compound?
Answer: Its IC50 is 4.08 µM.
